Measurements from ChEMBL document CHEMBL1201862, “PubChem BioAssay data set” (2004).
Values belong to the molecule of their own block, whether it stands above or below them. Calls of active or inactive are those of the source.

Experiments:
[1] = system: Escherichia coli; experiment: microbe, parasite or virus in culture
[2] = system: Streptococcus; experiment: Group A Streptococcus viability loss, dose response, counter-screen for streptokinase expression inhibitor project, luminescence, BacTiterGlo (AID 1915); format: functional, organism-based;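 further: potency for reduction of bacterial viability or growth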
[3] = HEp-2 cell cytotoxicity, dose response, cytotoxicity control for RSV inhibitor project, HTS (AID 2410); format: functional; settings: human respiratory syncytial virus
[4] = molecular target: T1, Heat shock factor protein 1 (Mus musculus, UniProt P38532); experiment: inhibition of MG132-induced HSE-luciferase signal, confirmation, cell-based, NIH3T3, luminescence, dose retest (AID 2382); format: functional;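 further: NIH3T3 fibroblasts with HSF1-driven luciferase reporter stressed by proteasome inhibitor MG132; luminescence from HSF1-driven luciferase expression after 8 hours of MG132 stress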
T1 sequence (P38532 whole entry): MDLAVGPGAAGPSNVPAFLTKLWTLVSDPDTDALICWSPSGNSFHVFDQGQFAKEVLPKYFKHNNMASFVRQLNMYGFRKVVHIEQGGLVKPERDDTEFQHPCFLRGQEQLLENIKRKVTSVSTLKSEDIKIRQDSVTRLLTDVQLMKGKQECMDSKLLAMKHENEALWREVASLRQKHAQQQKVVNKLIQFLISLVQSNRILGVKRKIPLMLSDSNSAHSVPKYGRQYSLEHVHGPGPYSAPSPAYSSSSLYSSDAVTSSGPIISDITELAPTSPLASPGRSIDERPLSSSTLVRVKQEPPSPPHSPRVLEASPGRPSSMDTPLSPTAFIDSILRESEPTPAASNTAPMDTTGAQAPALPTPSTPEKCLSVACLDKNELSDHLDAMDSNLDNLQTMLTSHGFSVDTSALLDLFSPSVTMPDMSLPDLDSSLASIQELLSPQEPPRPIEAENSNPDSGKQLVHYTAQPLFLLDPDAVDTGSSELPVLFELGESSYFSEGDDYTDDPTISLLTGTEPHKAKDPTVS

[5] = system: Streptococcus sp. 'group A'; experiment: growth inhibition of control SK(-) GAS strain, dose response, counter-screen for streptokinase expression inhibitor project, luminescence, kanamycin, BacTiterGlo, confirmation (AID 1900); format: functional, organism-based
[6] = molecular target: T2, Ubiquitin-conjugating enzyme E2 N (Homo sapiens, UniProt P61088); format: functional
T2 sequence (P61088 whole entry): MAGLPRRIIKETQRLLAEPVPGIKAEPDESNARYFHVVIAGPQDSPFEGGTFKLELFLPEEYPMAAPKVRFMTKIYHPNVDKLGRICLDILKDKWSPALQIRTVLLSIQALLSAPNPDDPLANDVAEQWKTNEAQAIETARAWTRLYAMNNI

[7] = molecular target: Glucose-6-phosphate 1-dehydrogenase (Homo sapiens, UniProt P11413); experiment: human G6PD enzyme inhibitors, dose response, selectivity assay for P. falciparum G6PD inhibitor project, biochemical, fluorescence (AID 504792); format: functional
[8] = molecular target: T3, Protein skinhead-1 (Caenorhabditis elegans, UniProt P34707); format: functional
T3 sequence (P34707 whole entry): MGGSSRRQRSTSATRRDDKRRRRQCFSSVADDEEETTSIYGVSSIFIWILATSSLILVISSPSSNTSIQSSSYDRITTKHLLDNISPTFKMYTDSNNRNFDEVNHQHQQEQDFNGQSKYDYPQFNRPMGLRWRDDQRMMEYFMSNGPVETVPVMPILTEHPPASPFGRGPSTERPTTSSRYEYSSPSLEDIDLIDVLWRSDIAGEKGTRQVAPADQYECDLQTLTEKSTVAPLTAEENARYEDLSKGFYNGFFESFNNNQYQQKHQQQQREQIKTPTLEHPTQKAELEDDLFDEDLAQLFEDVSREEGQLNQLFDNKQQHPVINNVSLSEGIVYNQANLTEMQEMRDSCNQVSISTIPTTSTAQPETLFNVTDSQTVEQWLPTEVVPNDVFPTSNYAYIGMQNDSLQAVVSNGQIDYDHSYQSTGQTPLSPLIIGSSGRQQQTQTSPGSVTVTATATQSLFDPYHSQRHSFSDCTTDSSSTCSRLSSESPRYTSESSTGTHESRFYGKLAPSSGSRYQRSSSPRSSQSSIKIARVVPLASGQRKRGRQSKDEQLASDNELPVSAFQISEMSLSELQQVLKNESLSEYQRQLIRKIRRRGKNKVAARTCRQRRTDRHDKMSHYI

[9] = molecular target: T4, DNA repair protein RAD52 homolog (Homo sapiens, UniProt P43351); format: functional, biochemical
T4 sequence (P43351 whole entry): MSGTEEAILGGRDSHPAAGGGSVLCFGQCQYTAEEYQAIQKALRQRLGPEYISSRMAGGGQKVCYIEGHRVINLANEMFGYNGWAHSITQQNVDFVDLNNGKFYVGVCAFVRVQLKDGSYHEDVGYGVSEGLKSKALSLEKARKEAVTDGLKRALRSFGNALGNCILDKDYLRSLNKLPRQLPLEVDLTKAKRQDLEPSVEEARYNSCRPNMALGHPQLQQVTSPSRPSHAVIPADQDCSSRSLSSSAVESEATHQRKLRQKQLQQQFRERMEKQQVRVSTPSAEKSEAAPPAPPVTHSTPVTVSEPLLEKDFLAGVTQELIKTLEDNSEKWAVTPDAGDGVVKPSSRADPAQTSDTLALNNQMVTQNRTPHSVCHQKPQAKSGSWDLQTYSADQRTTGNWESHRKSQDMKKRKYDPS

[10] = molecular target: T5, Apoptotic protease-activating factor 1 (Homo sapiens, UniProt O14727); format: functional
T5 sequence (O14727 whole entry): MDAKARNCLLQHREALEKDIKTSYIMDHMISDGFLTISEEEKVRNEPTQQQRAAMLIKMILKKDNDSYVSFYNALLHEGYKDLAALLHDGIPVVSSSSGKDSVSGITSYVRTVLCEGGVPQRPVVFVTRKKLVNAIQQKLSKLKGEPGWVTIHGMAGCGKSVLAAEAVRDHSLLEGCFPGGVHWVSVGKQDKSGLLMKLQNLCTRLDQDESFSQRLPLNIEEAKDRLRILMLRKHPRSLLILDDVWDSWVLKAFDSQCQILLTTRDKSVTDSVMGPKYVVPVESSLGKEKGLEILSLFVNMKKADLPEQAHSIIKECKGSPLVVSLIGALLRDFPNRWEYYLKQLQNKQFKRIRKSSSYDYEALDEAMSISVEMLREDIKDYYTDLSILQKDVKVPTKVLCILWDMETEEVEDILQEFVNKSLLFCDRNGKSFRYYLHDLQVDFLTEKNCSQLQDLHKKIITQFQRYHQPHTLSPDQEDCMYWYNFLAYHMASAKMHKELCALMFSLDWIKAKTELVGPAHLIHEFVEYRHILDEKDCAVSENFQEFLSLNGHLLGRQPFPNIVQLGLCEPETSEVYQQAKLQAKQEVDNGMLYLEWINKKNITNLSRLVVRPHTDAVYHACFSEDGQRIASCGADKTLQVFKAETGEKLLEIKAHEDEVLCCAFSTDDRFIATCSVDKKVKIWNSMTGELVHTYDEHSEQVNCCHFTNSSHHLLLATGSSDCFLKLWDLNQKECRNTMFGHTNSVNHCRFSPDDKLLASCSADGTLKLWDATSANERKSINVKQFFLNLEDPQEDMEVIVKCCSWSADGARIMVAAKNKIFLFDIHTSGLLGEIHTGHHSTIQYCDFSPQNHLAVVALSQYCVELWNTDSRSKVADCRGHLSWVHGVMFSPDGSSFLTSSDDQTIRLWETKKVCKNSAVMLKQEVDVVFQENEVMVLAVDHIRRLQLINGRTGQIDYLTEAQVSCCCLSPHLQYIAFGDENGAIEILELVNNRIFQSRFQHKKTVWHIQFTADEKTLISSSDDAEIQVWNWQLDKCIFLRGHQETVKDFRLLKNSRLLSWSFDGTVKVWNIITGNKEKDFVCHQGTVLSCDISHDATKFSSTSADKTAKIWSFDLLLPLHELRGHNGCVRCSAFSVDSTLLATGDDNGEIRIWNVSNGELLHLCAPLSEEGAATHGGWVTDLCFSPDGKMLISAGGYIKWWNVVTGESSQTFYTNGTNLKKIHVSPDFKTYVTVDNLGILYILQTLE

[11] = molecular target: T2, Ubiquitin-conjugating enzyme E2 N; format: functional; remark: listed apart in the source
[12] = C. albicans growth with fluconazole, confirmation, fluorescence, retest (AID 2467); format: functional, cell-based
[13] = NIH-3T3 fibroblast cytotoxicity, dose response, cytotoxicity control, cell-based, fluorescence, Alamar Blue, secondary assay (AID 2327); format: functional;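 further: NIH-3T3 mouse fibroblasts cultured with fluconazole at 8 µg/mL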
[14] = molecular target: T6, Bcl-2-related protein A1 (Mus musculus, UniProt Q07440); format: functional;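 further: confirmatory dose–response counterscreen on Bfl-1, used to check hits from a UBC13 polyubiquitin inhibitor campaign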
T6 sequence (Q07440 whole entry): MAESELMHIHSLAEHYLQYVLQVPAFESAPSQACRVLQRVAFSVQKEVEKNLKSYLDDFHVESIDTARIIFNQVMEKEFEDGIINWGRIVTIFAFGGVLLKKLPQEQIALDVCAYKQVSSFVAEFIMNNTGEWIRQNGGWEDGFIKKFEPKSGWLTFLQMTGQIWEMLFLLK

[15] = molecular target: Delta-type opioid receptor (Homo sapiens, UniProt P41143); experiment: Counterscreen for agonists of heterodimerization of the mu 1 (OPRM1) and delta 1 (OPRD1) opioid receptors: Luminescence-based cell-based high throughput dose response assay to identify agonists of OPRD1 homodimerization. [Related pubchem assays (depositor defined):AID504326, AID504355, AID504692, AID504904, AID504905]; format: functional
[16] = molecular target: 5-hydroxytryptamine receptor 5A (Homo sapiens, UniProt P47898); experiment: Counterscreen for agonists of OPRM1-OPRD1 heterodimerization: luminescence-based cell-based high throughput dose response assay to identify agonists of 5-hydroxytryptamine (serotonin) 5A receptor (HTR5A). [Related pubchem assays (depositor defined):AID504326, AID504355, AID504692, AID504904, AID504905]; format: functional
[17] = molecular target: Mu-type opioid receptor (Homo sapiens, UniProt P35372); experiment: Counterscreen for agonists of heterodimerization of the mu 1 (OPRM1) and delta 1 (OPRD1) opioid receptors: Luminescence-based cell-based high throughput dose response assay to identify agonists of OPRM1 homodimerization.; format: functional;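 further: U2OS cells expressing OPRM1 and beta-arrestin as split beta-galactosidase partners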
[18] = molecular target: Cysteine protease ATG4B (Homo sapiens, UniProt Q9Y4P1); format: functional;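 further: Fluorescence-based dose-response confirmation assay measuring inhibition of ATG4B activity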
[19] = molecular target: Phospholipase A2 (Homo sapiens, UniProt P04054); format: functional;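 further: confirmatory dose-response counterscreen on phospholipase A2, testing hits that came from an ultra-high-throughput screen for ATG4B inhibitors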
[20] = system: Candida albicans; experiment: growth inhibition of resistant C. albicans, dose response, CaCi-8 strain, fluconazole, dry powder, set 4 (AID 488950); format: functional, organism-based

Delta-type opioid receptor, sequence (P41143 whole entry): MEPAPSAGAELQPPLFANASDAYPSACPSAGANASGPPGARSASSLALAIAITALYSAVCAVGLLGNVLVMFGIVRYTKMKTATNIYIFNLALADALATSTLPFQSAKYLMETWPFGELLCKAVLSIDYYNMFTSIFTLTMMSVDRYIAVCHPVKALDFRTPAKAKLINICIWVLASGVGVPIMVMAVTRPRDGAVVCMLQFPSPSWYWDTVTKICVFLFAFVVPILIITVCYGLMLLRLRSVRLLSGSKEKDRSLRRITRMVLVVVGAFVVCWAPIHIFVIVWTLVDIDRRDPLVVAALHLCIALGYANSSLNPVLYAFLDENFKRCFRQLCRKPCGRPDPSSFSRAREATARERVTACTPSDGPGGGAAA
5-hydroxytryptamine receptor 5A, sequence (P47898 whole entry): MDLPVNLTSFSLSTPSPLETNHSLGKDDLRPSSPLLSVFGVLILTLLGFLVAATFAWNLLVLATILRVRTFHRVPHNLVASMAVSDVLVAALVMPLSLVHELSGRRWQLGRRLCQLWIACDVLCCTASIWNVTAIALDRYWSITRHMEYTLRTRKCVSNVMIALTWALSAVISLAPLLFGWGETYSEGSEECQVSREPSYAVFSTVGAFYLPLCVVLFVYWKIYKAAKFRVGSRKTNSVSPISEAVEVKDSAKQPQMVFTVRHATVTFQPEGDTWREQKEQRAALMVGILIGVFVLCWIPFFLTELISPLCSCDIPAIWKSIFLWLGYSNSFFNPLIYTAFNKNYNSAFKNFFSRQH
Mu-type opioid receptor, sequence (P35372 whole entry): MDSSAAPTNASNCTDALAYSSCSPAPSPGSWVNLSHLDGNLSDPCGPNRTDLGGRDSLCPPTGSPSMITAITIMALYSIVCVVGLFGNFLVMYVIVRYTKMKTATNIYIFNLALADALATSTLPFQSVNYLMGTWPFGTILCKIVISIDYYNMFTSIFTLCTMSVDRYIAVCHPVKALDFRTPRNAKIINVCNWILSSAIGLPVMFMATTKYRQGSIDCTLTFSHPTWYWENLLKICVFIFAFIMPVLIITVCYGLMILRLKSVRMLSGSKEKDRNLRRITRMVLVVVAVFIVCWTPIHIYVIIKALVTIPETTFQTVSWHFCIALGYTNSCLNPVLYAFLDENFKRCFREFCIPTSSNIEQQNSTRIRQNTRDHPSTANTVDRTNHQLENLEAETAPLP
Cysteine protease ATG4B, sequence (Q9Y4P1 whole entry): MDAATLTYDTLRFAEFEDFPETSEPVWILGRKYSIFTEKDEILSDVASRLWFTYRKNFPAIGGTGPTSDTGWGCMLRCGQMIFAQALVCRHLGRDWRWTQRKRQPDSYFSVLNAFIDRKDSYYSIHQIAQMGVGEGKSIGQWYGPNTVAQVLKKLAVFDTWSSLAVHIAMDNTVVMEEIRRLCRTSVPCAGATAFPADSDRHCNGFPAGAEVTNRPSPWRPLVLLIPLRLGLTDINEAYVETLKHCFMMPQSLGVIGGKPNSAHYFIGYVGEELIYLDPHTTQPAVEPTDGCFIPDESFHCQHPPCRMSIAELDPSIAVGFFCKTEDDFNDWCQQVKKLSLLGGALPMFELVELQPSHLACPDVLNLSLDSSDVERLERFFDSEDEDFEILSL
Phospholipase A2, sequence (P04054 whole entry): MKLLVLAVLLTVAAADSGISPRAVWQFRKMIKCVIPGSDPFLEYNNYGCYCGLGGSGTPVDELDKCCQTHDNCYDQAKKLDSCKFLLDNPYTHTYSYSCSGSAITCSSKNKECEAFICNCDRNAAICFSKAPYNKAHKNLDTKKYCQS
Glucose-6-phosphate 1-dehydrogenase, sequence (P11413 whole entry): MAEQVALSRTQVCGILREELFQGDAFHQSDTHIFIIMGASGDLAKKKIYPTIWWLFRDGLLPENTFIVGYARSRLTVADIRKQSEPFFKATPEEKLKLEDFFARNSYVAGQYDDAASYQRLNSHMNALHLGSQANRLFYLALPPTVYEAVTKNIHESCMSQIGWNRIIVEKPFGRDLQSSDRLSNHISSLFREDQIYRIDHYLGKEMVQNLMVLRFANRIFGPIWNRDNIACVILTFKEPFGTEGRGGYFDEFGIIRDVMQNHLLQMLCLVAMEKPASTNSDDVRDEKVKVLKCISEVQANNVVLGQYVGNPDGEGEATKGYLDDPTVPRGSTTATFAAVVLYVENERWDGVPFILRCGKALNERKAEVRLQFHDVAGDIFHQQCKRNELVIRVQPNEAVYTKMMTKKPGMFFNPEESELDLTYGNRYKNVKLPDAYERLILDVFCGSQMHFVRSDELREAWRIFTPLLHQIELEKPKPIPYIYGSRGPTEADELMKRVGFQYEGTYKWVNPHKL

Structure (SMILES): COc1c(N2CCN(C(S)=NC3CC4CCC3C4)C(C)C2)c(F)cc2c(=O)c(C(=O)O)cn(C3CC3)c12 (stereo unspecified)
AC50 [1]: 2.64 µM (active)
EC50 [2]: 3.77 µM (active)
CC50 [3]: 9.91 µM (active)
EC50 [4]: 17 µM (active)
EC50 [5]: 5.85 µM (active)

Structure (SMILES): Cc1ccc2nc(-c3ccc(NC(S)=NC4CC(C)(C)NC(C)(C)C4)cc3)sc2c1
IC50 [6]: 16.8 µM (active)
IC50 [7]: > 80 µM (inactive)
IC50 [8]: 35.1 µM (active)
AC50 [9]: 4.95 µM (active)
IC50 [10]: 43.6 µM (active)
IC50 [11]: > 20 µM (inactive)
EC50 [12]: > 38 µM (not active)
EC50 [13]: > 150 µM (inactive)
IC50 [14]: > 20 µM (inactive)

Structure (SMILES): CCCCNC(=O)N1CCN(c2ccnc3cc(Cl)ccc23)CC1
AC50 [20]: 23 µM (active)

Structure (SMILES): CCN(CC)S(=O)(=O)c1ccc(=O)n(CC(=O)N2Cc3ccccc3CC2C(N)=O)c1 (stereo unspecified)
AC50 [1]: 116 µM (active)

The next lines start with the values.

EC50 [15]: > 92.5 µM (inactive)
EC50 [16]: > 92.5 µM (inactive)
EC50 [17]: > 92.5 µM (inactive)
Structure (SMILES): COc1ccccc1CN1CCN(C(CC(C)C)c2nnnn2Cc2cccs2)CC1 (stereo unspecified)

IC50 [18]: 14.3 µM (active)
IC50 [19]: 12.3 µM (active)
Structure (SMILES): O=C(O)CC/C(=C\c1ccc(Cl)c([N+](=O)[O-])c1)c1nc2ccccc2s1

IC50 [18]: 14.8 µM (active)
IC50 [19]: 0.605 µM (active)
Structure (SMILES): O=C1OC(c2cccs2)=N/C1=C\c1ccc(-c2cccc(Cl)c2)o1

EC50 [15]: > 92.5 µM (inactive)
EC50 [16]: > 92.5 µM (inactive)
EC50 [17]: > 92.5 µM (inactive)
Structure (SMILES): CN(C)C(CNC(=O)c1ccc2ccccc2c1)c1ccco1 (stereo unspecified)
